# Where a name gives a salt, the structure may show the parent alone. Read-outs that look alike come from different tables or passages of the source.
# What was measured:
# immobilisation ulcer = immobilisation ulcer inhibition, method of Borsi et al.; assay type: in vivo; settings: po, rat, p.o., read-out: Ulcer-inhibiting effect ED50, immob.
# Method: (§1) All experiments were carried out on rats.
# Shay ulcer = assay: Shay ulcer-inhibiting effect, method of H. Shay et al.; assay type: in vivo; settings: po, rat
# Method: as §1
# acute toxicity = settings: in vivo, rat
# Method: as §1
# gastric acid secretion = assay: inhibition of gastric juice secretion, method of H. Shay et al.; assay type: in vivo; settings: po; rat
# Method: as §1
# in vivo = settings: rat
# Method: (§2) The effects of the new compounds exerted on the gastric acid secretion and Shay ulcer was examined according to the method of H. Shay et al. (Gastroenterology 5, 43/1945/), while their inhibition effect exerted on immobilisation and insuline ulcer was tested according to the method of Borsi et al. (Acta Pharm. Hung. 38, 151 /1968/). […] All experiments were carried out on rats. As reference substance, methantheline (diethyl-/2-hydroxyethyl/-methylammonium bromide xanthene-9-carboxylate) was used.
# ileum = settings: rat
# Method: as §2
# insuline ulcer = assay: insulin ulcer inhibition, method of Borsi et al.; assay type: in vivo; settings: po, rat, p.o., read-out: Ulcer-inhibiting effect ED50, insulin
# Method: as §1
# [1] = ip, i.p., read-out: Acute toxicity LD50, i.p.
# [2] = po, p.o., read-out: Acute toxicity LD50, p.o.
Compound,ED50 (immobilisation ulcer),ED50 (Shay ulcer),LD50 (acute toxicity; [1]),LD50 (acute toxicity; [2]),ED50 (gastric acid secretion),ED50 (in vivo),"Anticholinergic effect, ED50, ileum (ileum)",ED50 (insuline ulcer)
"O=C(CN1CCCCC1)Nc1nc(-c2cccnc2)cs1 [Example 17, 2-(Pentamethyleneimino-acetamido)-4-(3'-pyridyl)-thiazole]",> 40 mg/kg,> 40 mg/kg,650 mg/kg,1300 mg/kg,> 40 mg/kg,> 100 mg/kg,> 1 gamma,> 40 mg/kg
"Cc1sc(NC(=O)CNCCO)nc1-c1cccnc1 [Example 32, 2-(2'-hydroxyethylamino-acetamido)-4-(3""-pyridyl)-5-methyl-thiazole]",> 40 mg/kg,> 40 mg/kg,400 mg/kg,> 1500 mg/kg,35 mg/kg,> 100 mg/kg,> 1 gamma,> 40 mg/kg
"CC(C)CNCC(=O)Nc1nc(-c2cccnc2)cs1 [Example 24, 2-(Isobutylamino-acetamido)-4-(3'-pyridyl)-thiazole dihydrochloride]",> 40 mg/kg,> 40 mg/kg,200 mg/kg,350 mg/kg,23 mg/kg,> 100 mg/kg,> 1 gamma,20 mg/kg
"O=C(CN1CCCCCCC1)Nc1nc(-c2cccnc2)cs1 [Example 19, 2-(Heptamethyleneimino-acetamido)-4-(3'-pyridyl)-thiazole]",–,> 40 mg/kg,> 1000 mg/kg,> 2000 mg/kg,> 40 mg/kg,> 100 mg/kg,> 1 gamma,–
"O=C(CNC1CC1)Nc1nc(-c2cccnc2)cs1 [Example 2, 2-cyclopropylamino-acetamido-4-(3'-pyridyl)-thiazole]",27 mg/kg,40 mg/kg,310 mg/kg,420 mg/kg,8 mg/kg,> 100 mg/kg,> 1 gamma,6 mg/kg
"CCCCCCCCNCC(=O)Nc1nc(-c2cccnc2)cs1 [Example 28, 2-(n-Octylamino-acetamido)-4-(3'-pyridyl)-thiazole dihydrochloride]",–,> 40 mg/kg,200 mg/kg,800 mg/kg,40 mg/kg,> 100 mg/kg,> 1 gamma,–
"CCCCCCNCC(=O)Nc1nc(-c2cccnc2)cs1 [Example 27, 2-(n-Hexylamino-acetamido)-4-(3'-pyridyl)-thiazole dihydrochloride]",25 mg/kg,50 mg/kg,300 mg/kg,450 mg/kg,30 mg/kg,> 100 mg/kg,> 1 gamma,20 mg/kg
"O=C(CNCc1ccccc1)Nc1nc(-c2cccnc2)cs1 [Example 8, 2-(Benzylamino-acetamido)-4-(3'-pyridyl)-thiazole]",–,> 40 mg/kg,> 1000 mg/kg,1000 mg/kg,20 mg/kg,> 100 mg/kg,> 1 gamma,–
"O=C(CNc1ccccc1)Nc1nc(-c2cccnc2)cs1 [Example 16, 2-(Phenylamino-acetamido)-4-(3'-pyridyl)-thiazole]",> 40 mg/kg,> 40 mg/kg,> 1000 mg/kg,> 2000 mg/kg,> 40 mg/kg,> 100 mg/kg,> 1 gamma,> 40 mg/kg
"CC[N+](C)(CC)CCOC(=O)C1c2ccccc2Oc2ccccc21 [Methantheline, diethyl-/2-hydroxyethyl/-methylammonium bromide xanthene-9-carboxylate, reference compound]",20.7 mg/kg,15.2 mg/kg,76 mg/kg,320 mg/kg,20 mg/kg,17 mg/kg,3×10^-^5 gamma,11.5 mg/kg
"Cc1sc(NC(=O)CNC2CC2)nc1-c1cccnc1 [Example 31, 2-cyclopropylamino-acetamido-4-(3'-pyridyl)-5-methyl-thiazole dihydrochloride]",30 mg/kg,50 mg/kg,500 mg/kg,1000 mg/kg,19 mg/kg,> 100 mg/kg,> 1 gamma,20 mg/kg
"CCNCC(=O)Nc1nc(-c2cccnc2)cs1 [Example 4, 2-(Ethylamino-acetamido)-4-(3'-pyridyl)-thiazole]",40 mg/kg,> 40 mg/kg,240 mg/kg,550 mg/kg,16 mg/kg,> 100 mg/kg,> 1 gamma,12 mg/kg
"O=C(CNC1CC1)Nc1nc(-c2ccncc2)cs1 [Example 33, 2-cyclopropylamino-acetamido-4-(4'-pyridyl)-thiazole dihydrochloride]",–,–,600 mg/kg,900 mg/kg,20 mg/kg,> 100 mg/kg,> 1 gamma,–
"CCN(CC)CC(=O)Nc1nc(-c2cccnc2)cs1 [Example 5, 2-(Diethylamino-acetamido)-4-(3'-pyridyl)-thiazole]",40 mg/kg,> 40 mg/kg,460 mg/kg,1400 mg/kg,40 mg/kg,> 100 mg/kg,> 1 gamma,> 40 mg/kg
"O=C(CN1CCOCC1)Nc1nc(-c2cccnc2)cs1 [Example 18, 2-(4'-Morpholino-acetamido)-4-(3""-pyridyl)-thiazole]",–,> 40 mg/kg,> 1000 mg/kg,1300 mg/kg,> 40 mg/kg,> 100 mg/kg,> 1 gamma,–

# Source: patent US3963735A, “Acylated 2-aminothiazole derivatives” (Egyt Gyogyszervegyeszeti Gyar, priority 1973, dated 1976)
